Experiments:
[1] = tested on: malignant B cells and primary tumor cell lines; settings: preclinical data, no reference given; cited from earlier work
[2] = tested on: relapsed or refractory B-cell hematological malignancies; design: method as in PMID 34425850; settings: phase Ia, cited from earlier work
[3] = single-dose 14C-YY-20394 tracer study; cited from earlier work
[4] = tested on: CT26 cancer model; settings: preclinical findings, no reference given; cited from earlier work
[5] = tested on: advanced solid tumors; assay: Phase Ib trial of oral linperlisib: efficacy (RECIST 1.1); format: in vivo, human; settings: 80 mg/day oral;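 note: Open-label single-arm multicenter study in China, once-daily dosing over 28-day cycles, response judged by contrast CT or MRI every 8 weeks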
Description: (§1) This phase Ib, single-arm, open-label, multi-center clinical trial recruited patients with advanced or metastatic solid tumors from eight sites in China.
(§2) The main exclusion criteria included prior use of PI3K targeted agents and clinically symptomatic central nervous system metastasis or meningeal metastasis.
(§3) Patients received oral linperlisib 80 mg once per day, taken with warm water either 1 h prior to or 2 h after a meal every day, in a 28-day cycle. Dose adjustments, including holds and reductions, were mandated for grade 3/4 hematologic and grade 3 non-hematologic toxicity. Treatment with linperlisib continued until disease progression, intolerable toxicity, withdrawal of informed consent, death or any other conditions deemed by the investigator to warrant drug discontinuation.
(§4) Physical examination, assessment of ECOG performance status, clinical laboratory evaluations, electrocardiogram, and other safety evaluations were conducted to assess safety. AEs were graded according to the National Cancer Institute Common Terminology Criteria for Adverse Events (CTCAE), Version 5.0. All AEs were recorded from the time of signing the informed consent to at least 30 days after the last dose, and were followed until resolution or stabilization. Patients underwent radiographic assessments every 8 weeks by enhanced computed tomography or magnetic resonance imaging according to RECIST 1.1.
(§5) The primary endpoint was safety as assessed by monitoring the frequency, duration, and severity of AEs. Secondary endpoints were efficacy endpoints, including ORR, DCR, and progression-free survival (PFS).
(§6) Baseline data are presented descriptively. ORR is determined by the proportion of patients who achieve a confirmed complete response (CR) or partial response (PR) as the best overall response, and is presented with CIs. PFS and overall survival (OS) curves are generated using the Kaplan–Meier method. The incidence of AEs and serious AEs (SAEs) are reported as numbers and percentages.

[6] = tested on: patients with advanced solid tumors; settings: 80 mg/day oral;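 note: phase Ib open-label single-arm trial, once-daily dosing in 28-day cycles, adverse events graded by NCI CTCAE v5.0, recorded until at least 30 days post last dose, incidence as patient counts and percentages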
Description: as §1, §2, §3, §4, §5, §6

SMILES: COc1ncc(-c2nc(N3CCOCC3)nc3c(CN4CCC(C(C)(C)O)CC4)cc(F)cc23)cc1NS(C)(=O)=O [linperlisib]
- Apoptosis and proliferation [1]: induce apoptosis and inhibit the proliferation
- Objective response rate (ORR) ([2]; 20 to 200 mg, 16/25, 95% CI 45.2–82.8): 64%
- Disease control rate (DCR) ([2]; 20 to 200 mg, 18/25, 95% CI 54.4–89.6): 72%
- Dose-limiting toxicities ([2]; highest 200 mg/day dose): no dose-limiting toxicities were observed
- Route of excretion [3]: primarily excreted through the kidneys
- Tumor volume [4]: reduced tumor volume
- DCR in patients with thymic carcinoma [5]: 50%
- DCR, patients with less than three prior lines of therapy [5]: 46.3%
- Progressive disease as best response ([5]; 94 patients): Thirty-nine
- Stable disease ([5]; 94 patients): 34 patients
- Median progression-free survival (PFS) ([5]; 94 patients, 95% CI 1.79–1.88): 1.85 months
- Median overall survival (OS) ([5]; 94 patients, median follow-up 4.2 months): not reached
- Complete response (CR) rate ([5]; 94 patients, one thymoma patient): 1.1%
- Objective response rate (ORR) ([5]; all 94 patients, 95% CI 0.0–5.8): 1.1%
- Disease control rate (DCR) ([5]; all 94 patients, 95% CI 27.5–47.8): 37.2%
- DCR, anal cancer ([5]; n = 1): 1 (100.0) n (%)
- DCR, endometrial cancer ([5]; n = 1): 0 (0.0) n (%)
- DCR, esophageal cancer ([5]; n = 1): 0 (0.0) n (%)
- DCR, lung neuroendocrine carcinoma ([5]; n = 1): 1 (100.0) n (%)
- DCR, lung squamous cell carcinoma ([5]; n = 1): 0 (0.0) n (%)
- DCR, oral cavity cancer ([5]; n = 1): 1 (100.0) n (%)
- DCR, ovarian cancer ([5]; n = 1): 1 (100.0) n (%)
- DCR, pancreatic cancer ([5]; n = 1): 1 (100.0) n (%)
- DCR, parotid carcinoma ([5]; n = 1): 0 (0.0) n (%)
- DCR, thymoma ([5]; n = 1): 1 (100.0) n (%)
- ORR, anal cancer ([5]; n = 1): 0 (0.0) n (%)
- ORR, endometrial cancer ([5]; n = 1): 0 (0.0) n (%)
- ORR, esophageal cancer ([5]; n = 1): 0 (0.0) n (%)
- ORR, lung neuroendocrine carcinoma ([5]; n = 1): 0 (0.0) n (%)
- ORR, lung squamous cell carcinoma ([5]; n = 1): 0 (0.0) n (%)
- ORR, oral cavity cancer ([5]; n = 1): 0 (0.0) n (%)
- ORR, ovarian cancer ([5]; n = 1): 0 (0.0) n (%)
- ORR, pancreatic cancer ([5]; n = 1): 0 (0.0) n (%)
- ORR, parotid carcinoma ([5]; n = 1): 0 (0.0) n (%)
- ORR, thymoma ([5]; n = 1): 1 (100.0) n (%)
- DCR, carcinoma of renal pelvis ([5]; n = 2): 1 (50.0) n (%)
- DCR, cholangiocarcinoma ([5]; n = 2): 0 (0.0) n (%)
- DCR, hepatocellular carcinoma ([5]; n = 2): 0 (0.0) n (%)
- ORR, carcinoma of renal pelvis ([5]; n = 2): 0 (0.0) n (%)
- ORR, cholangiocarcinoma ([5]; n = 2): 0 (0.0) n (%)
- ORR, hepatocellular carcinoma ([5]; n = 2): 0 (0.0) n (%)
- DCR, gallbladder cancer ([5]; n = 3): 2 (66.7) n (%)
- DCR, nasopharyngeal carcinoma ([5]; n = 3): 2 (66.7) n (%)
- ORR, gallbladder cancer ([5]; n = 3): 0 (0.0) n (%)
- ORR, nasopharyngeal carcinoma ([5]; n = 3): 0 (0.0) n (%)
- DCR, gastric cancer ([5]; n = 4): 1 (25.0) n (%)
- ORR, gastric cancer ([5]; n = 4): 0 (0.0) n (%)
- DCR, renal cell carcinoma ([5]; n = 5): 2 (40.0) n (%)
- ORR, renal cell carcinoma ([5]; n = 5): 0 (0.0) n (%)
- DCR, lung adenocarcinoma ([5]; n = 6): 3 (50.0) n (%)
- ORR, lung adenocarcinoma ([5]; n = 6): 0 (0.0) n (%)
- DCR, breast cancer ([5]; n = 8): 1 (12.5) n (%)
- ORR, breast cancer ([5]; n = 8): 0 (0.0) n (%)
- DCR, sarcoma ([5]; n = 9): 3 (33.3) n (%)
- ORR, sarcoma ([5]; n = 9): 0 (0.0) n (%)
- DCR, colon cancer ([5]; n = 11): 3 (27.3) n (%)
- ORR, colon cancer ([5]; n = 11): 0 (0.0) n (%)
- DCR, rectal cancer ([5]; n = 13): 3 (23.1) n (%)
- ORR, rectal cancer ([5]; n = 13): 0 (0.0) n (%)
- DCR, thymic carcinoma ([5]; n = 16): 8 (50.0) n (%)
- ORR, thymic carcinoma ([5]; n = 16): 0 (0.0) n (%)
- DCR, lung and mediastinal tumors, total ([5]; n = 25): 13 (52.0) n (%)
- ORR, lung and mediastinal tumors, total ([5]; n = 25): 1 (4.0) n (%)
- DCR, other types of tumor, total ([5]; n = 31): 11 (35.5) n (%)
- ORR, other types of tumor, total ([5]; n = 31): 0 (0.0) n (%)
- DCR, gastrointestinal tumors, total ([5]; n = 38): 11 (28.9) n (%)
- ORR, gastrointestinal tumors, total ([5]; n = 38): 0 (0.0) n (%)
- Shrinkage of target lesions ([5]; thymoma, gallbladder cancer, anal canal squamous cell carcinoma, renal cell carcinoma, renal pelvis cancer): more than 20%
- Target lesion change in patients with HCC ([5]; two patients with HCC): one of them had shrinkage of target lesions
- Incidence of hyperglycemia related to linperlisib, ≥ grade 3 [6]: 0%
- Grade ≥ 3 TEAE anemia ([6]; 94 patients): 3.2%
- Grade ≥ 3 TEAE diarrhea ([6]; 94 patients): 4.3%
- Grade ≥ 3 TEAE increased ALT ([6]; 94 patients): 3.2%
- Grade ≥ 3 TEAE increased AST ([6]; 94 patients): 3.2%
- Grade ≥ 3 TEAE increased blood alkaline phosphatase ([6]; 94 patients): 3.2%
- Grade ≥ 3 TEAE neutropenia ([6]; 94 patients): 3.2%
- Patients who suspended linperlisib due to TRAEs ([6]; 94 patients): 19.1%
- Patients who terminated linperlisib due to vomiting, esophagitis, gastritis, or drug eruption ([6]; 94 patients): 2.1%
- Patients who withdrew from the trial because of TRAEs ([6]; 94 patients): 5.3%
- Patients with SAEs related to linperlisib ([6]; 94 patients): 10.6%
- Patients with TEAEs of grade 3 or greater ([6]; 94 patients): 45.7%
- Patients with TRAEs of grade 3 or greater ([6]; 94 patients): 28.7%
